Reference: patent publication US20220211860A1, “PEPTIDE DERIVATIVES AND CONJUGATES THEREOF FOR TREATING CANCER” (priority 2019, published 2022)

Tested on: α-tubulin polymerisation
Experiment: α-tubulin immunostaining in TNBC and normal breast cells
Assay type: cell-based
Details: normal breast cells, 1 µM, 18 h
Procedure: FIGS. 8A and 8B: The effect of MMAE and LD5-me-vc-PABC-MMAE (LM) on α-tubulin polymerization. (A) MDA-MB-231 (TNBC cell model) and normal breast cells (HMEC and MCF-10A) were treated with free MMAE and LM at 1 μM and PBS (control) followed by immunostaining of α-tubulin with primary and secondary antibodies. The α-tubulin signals were detected by LEICA SPE2 confocal LSM. (B) The α-tubulin signal intensity was measured by Fiji J software in normal breast cells (HMEC and MCF-10A) and MDA-MB-231. ****p<0.0001 is the significance in the signal intensity in each cell line treated with PBS and LM in comparison to MMAE-treated cells. ####p<0.0001 is the significance of the α-tubulin signal intensity in MDA-MB-231 cells treated with LM in comparison to MCF-10A and HMEC cells. […] Statistical analysis was made in Prism by two-way ANOVA followed by Tukey's multiple comparisons test. Error bars are standard deviations (STDV), n=8 (3 independent repeats).
The intracellular effects of MMAE on α-tubulin polymerisation were examined using α-tubulin immunostaining in TNBC cells (MDA-MB-231) and normal breast cells (MCF-10A and HMEC) treated with MMAE and MMAE conjugated with LD5 (LD5-mc-vc-PABC-MMAE). TNBC cells and normal breast cells were fixed after incubating with […] of MMAE and LD5-mc-vc-PABC-MMAE for 18 h along with PBS as a control. […]

CCNC(=O)[C@@H]1CCCN1C(=O)[C@H](CCCNC(=N)N)NC(=O)[C@H](CC(C)C)NC(=O)[C@@H](CCCCNC1CC(=O)N(CCCCCC(=O)N[C@H](C(=O)N[C@@H](CCCNC(N)=O)C(=O)Nc2ccc(COC(=O)N(C)[C@H](C(=O)N[C@H](C(=O)N(C)[C@@H]([C@@H](C)CC)[C@@H](CC(=O)N3CCC[C@H]3[C@H](OC)[C@@H](C)C(=O)N[C@H](C)[C@@H](O)c3ccccc3)OC)C(C)C)C(C)C)cc2)C(C)C)C1=O)NC(=O)[C@H](Cc1ccc(O)cc1)NC(=O)[C@H](CO)NC(=O)[C@H](Cc1c[nH]c2ccccc12)NC(=O)[C@H](Cc1c[nH]cn1)NC(=O)[C@@H]1CCC(=O)N1 (stereo partly shown) [LD5-mc-vc-PABC-MMAE]
α-tubulin signal compared to MMAE treatment: significantly higher
